Reference: patent US4504580A, “Antibiotics produced by fermentation of a novel strain of Streptomyces hygroscopicus” (Bristol-Myers Company, priority 1983, dated 1985)
In brackets after ≈: the same amount, converted by molar mass. Entries after “also recorded” stand apart in the source; their conditions may differ. Where two headings read alike, the source gives them in different places.

Experiments:
[1] = system: Staphylococcus aureus 209P; assay: MIC by serial two-fold agar dilution, S. aureus 209P; format: cell-based; details: Staphylococcus aureus, 209P; Table 7; Mueller-Hinton agar; read-out: MIC
Procedure: (§1) The minimum inhibitory concentrations (MIC) of Bu-2659A, B, C, D and E were determined for a variety of gram-positive and gram-negative bacteria by the serial two-fold agar dilution method using the Steer's multi-inoculating apparatus. The inoculum was standardized as a 10^4 dilution of an overnight culture of the test organisms in Heart Infusion Broth (Difco). […] Reference antibiotics utilized in these tests included commercially available neomycin as well as its components, neomycins B and C [as used herein, the term "neomycin" means the commercial product containing neomycins B and C at an approximate ratio of 7:3], paromomycin [the commercial product containing >90% of paromomycin I and <10% of paromomycin II] and ribostamycin.

[2] = system: Bacillus subtilis PCI 219; assay: MIC by serial two-fold agar dilution, B. subtilis PCI 219; format: cell-based; details: Bacillus subtilis, PCI219; Table 7; Mueller-Hinton agar; read-out: MIC
Procedure: as §1

Escherichia coli NIHJ = assay: MIC by serial two-fold agar dilution, E. coli NIHJ; format: cell-based; details: Escherichia coli; Table 7; Mueller-Hinton agar; read-out: MIC
Procedure: as §1

Escherichia coli Juhl = assay: MIC by serial two-fold agar dilution, E. coli Juhl; format: cell-based; details: Escherichia coli; Table 7; Mueller-Hinton agar; read-out: MIC
Procedure: as §1

Proteus mirabilis A9906 = assay: MIC by serial two-fold agar dilution, P. mirabilis A9906; format: cell-based; details: Proteus mirabilis, A9906; Table 7; Mueller-Hinton agar; read-out: MIC
Procedure: as §1

Proteus rettgeri A15167 = assay: MIC by serial two-fold agar dilution, P. rettgeri A15167; format: cell-based; details: Providencia rettgeri, A15167; Table 7; Mueller-Hinton agar; read-out: MIC
Procedure: as §1

[3] = system: Pseudomonas aeruginosa D15; assay: MIC by serial two-fold agar dilution, P. aeruginosa D15; format: cell-based; details: Pseudomonas aeruginosa, D15; Table 7; Mueller-Hinton agar; read-out: MIC
Procedure: as §1

[4] = system: Streptococcus pneumoniae Type I; assay: MIC by serial two-fold agar dilution, S. pneumoniae Type I; format: cell-based; details: Streptococcus pneumoniae; Table 8; GC medium; read-out: MIC
Procedure: as §1

[5] = system: Neisseria gonorrhoeae A20143; assay: MIC by serial two-fold agar dilution, N. gonorrhoeae A20143; format: cell-based; details: Neisseria gonorrhoeae, A20143; Table 8; GC medium; read-out: MIC
Procedure: as §1

[6] = system: Mycobacterium smegmatis 607; assay: MIC by serial two-fold agar dilution, M. smegmatis 607; format: cell-based; details: Mycolicibacterium smegmatis, 607; Table 8; No. 1001 medium; read-out: MIC
Procedure: as §1

Mycobacterium phlei = assay: MIC by serial two-fold agar dilution, M. phlei; format: cell-based; details: Mycolicibacterium phlei; Table 8; No. 1001 medium; read-out: MIC
Procedure: as §1

Escherichia coli ML 1630 = assay: MIC, aminoglycoside-resistant E. coli ML 1630; format: cell-based; details: Escherichia coli, ML1630; Table 9; inactivating enzyme APH(3')-I; Mueller-Hinton agar; read-out: MIC
Procedure: as §1

Escherichia coli JR88 = assay: MIC, aminoglycoside-resistant E. coli JR88; format: cell-based; details: Escherichia coli, JR88
Procedure: as §1

[7] = system: Escherichia coli JR35/C600; assay: MIC, aminoglycoside-resistant E. coli JR35/C600; format: cell-based; details: Escherichia coli, JR35/C600
Procedure: as §1

[8] = system: Pseudomonas aeruginosa A20601; assay: MIC, aminoglycoside-resistant P. aeruginosa A20601; format: cell-based; details: Pseudomonas aeruginosa, A20601; Table 9; inactivating enzymes AAC(3)-I, APH(3')-II; Mueller-Hinton agar; read-out: MIC
Procedure: as §1

[9] = system: gram-positive and gram-negative bacteria; assay: In vitro antibacterial spectra (MIC), overall comparison, Table 7; format: cell-based; details: Table 7 organisms
Procedure: as §1

[10] = system: Neisseria and Haemophilus species; assay: Antibacterial activity (MIC), overall, Neisseria and Haemophilus, Table 8; format: cell-based; details: compared with neomycin
Procedure: as §1

[11] = system: Staphylococcus aureus Smith; assay: Experimental systemic infection in mice, S. aureus Smith; format: in vivo; details: Staphylococcus aureus, 96 h, im, single treatment, 4 days, read-out: PD50
Procedure: (§2) The in vivo activity of Bu-2659A was assessed by experimental systemic infection in mice. The pathogenic bacteria used in the in vivo tests were E. coli Juhl, K. pneumoniae D-11, P. mirabilis A9906, S. aureus Smith and S. pyogenes A20201. Mice were challenged intraperitoneally with approximately 100×LD50 dose of the pathogens in a 5% suspension of hog gastric mucin (American Laboratories, Omaha, Neb.). A single intramuscular treatment with the antibiotic was given immediately after the bacterial challenge. […] Neomycin was comparatively tested as a reference compound. […] In terms of PD50 value Bu-2659A was about one-half as active as neomycin against infections with S. aureus and S. pyogenes.

[12] = system: E. coli Juhl, K. pneumoniae D-11, P. mirabilis A9906, S. aureus Smith and S. pyogenes A20201; assay: Experimental systemic infection in mice, overall; format: in vivo
Procedure: as §2

Acute toxicity in mice = format: in vivo; details: for LD50: mouse, in vivo, mice, read-out: LD50
Procedure: The acute toxicity of Bu-2659A was determined in mice by intravenous, intraperitoneal and subcutaneous routes. Neomycin also was tested for comparison purposes. […] The toxicity of Bu-2659A was approximately 1/3 that of neomycin in terms of LD50 values, thus presenting a potential clinical advantage for Bu-2659A.

Work on `NC[C@@H]1O[C@H](O[C@H]2[C@@H](O)[C@H](O[C@@H]3[C@@H](O)[C@H](O)C[C@H](N)[C@H]3O[C@H]3O[C@H](CN)[C@@H](O)[C@H](O)[C@H]3N)O[C@@H]2CO)[C@H](N)[C@@H](O)[C@@H]1O` [Bu-2659A, 1-deamino-1-hydroxyneomycin B] yielded an MIC [1] of 0.8 µg/mL (≈ 1.3 µM), an MIC [2] of 0.1 µg/mL (≈ 0.162 µM) and an MIC (Escherichia coli NIHJ) of 1.6 µg/mL (≈ 2.6 µM). It also gave an MIC (Escherichia coli Juhl) of 3.1 µg/mL (≈ 5.04 µM), an MIC (Proteus mirabilis A9906) of 0.8 µg/mL (≈ 1.3 µM) and an MIC (Proteus rettgeri A15167) of 0.8 µg/mL (≈ 1.3 µM). The MIC [3] was 3.1 µg/mL (≈ 5.04 µM), the MIC [4] was 25 µg/mL (≈ 40.6 µM) and the MIC [5] was 50 µg/mL (≈ 81.2 µM). The MIC [6] was 0.4 µg/mL (≈ 0.65 µM), the MIC (Mycobacterium phlei) was 0.1 µg/mL (≈ 0.162 µM) and the MIC (Escherichia coli ML 1630) was greater than 100 µg/mL. For the same compound, the MIC (Escherichia coli JR88) was 1.6 µg/mL (≈ 2.6 µM), the MIC [7] was 25 µg/mL (≈ 40.6 µM) and the MIC [8] was 6.3 µg/mL (≈ 10.2 µM). For the same compound, the “in vitro antibacterial activity, in words” value [9] was “highest activity among the five Bu-2659 components; also recorded: comparable to that of neomycin; also recorded: substantially the same level of antibacterial activity as neomycin B”, the “activity against Neisseria and Haemophilus, in words” value [10] was “more active than neomycin” and the ED50 [11] was 0.63 mg/kg. The “protection in mice, in words” value ([12]; five experimental infections) was “excellent protection”, the “in vivo activity relative to neomycin, in terms of PD50” value ([12]; infections with S. aureus and S. pyogenes) was “about one-half” and the “in vivo activity compared with neomycin, in words” value ([12]; infections with three gram-negative bacteria) was “comparable to that of neomycin”. For the same compound, the “acute toxicity compared with neomycin, in words” value (Acute toxicity in mice; all routes of administration) was “significantly less toxic than neomycin”, the “toxicity relative to neomycin in terms of LD50 values” (Acute toxicity in mice; intravenous, intraperitoneal, subcutaneous) was “approximately 1/3” and the LD50 (Acute toxicity in mice; ip, intraperitoneal) was 460 mg/kg. The LD50 (Acute toxicity in mice; sc, subcutaneous) was 720 mg/kg and the LD50 (Acute toxicity in mice; intravenous) was 110 mg/kg.
